Experimental data from ChEMBL document CHEMBL3885881, “DrugMatrix”.

Organism: Rattus norvegicus
Assay: DrugMatrix - Regimen: Daily Repeat
Format: toxicity, organism-based, Sprague-Dawley
Parameters: regimen Daily Repeat, gender Male, age 6-8 weeks
Settings: in vivo, sc, 474 mg/kg, route subcutaneous, dose level High, […]; for ABSOLUTE BASOPHIL / ABSOLUTE EOSINOPHIL / ABSOLUTE LYMPHOCYTE / ABSOLUTE MONOCYTE / ABSOLUTE SEGMENTED NEUTROPHIL / BASOPHIL / EOSINOPHIL / ERYTHROCYTE COUNT / HEMATOCRIT / HEMOGLOBIN / LEUKOCYTE COUNT / LYMPHOCYTE / MEAN CORPUSCULAR HEMOGLOBIN / MEAN CORPUSCULAR HEMOGLOBIN CONCENTRATION / MEAN CORPUSCULAR VOLUME / MONOCYTE / NEUTROPHIL / NUCLEATED RED BLOOD CELLS / PLATELET COUNT: tissue Blood; for ALANINE AMINOTRANSFERASE / ALBUMIN / ALKALINE PHOSPHATASE / ASPARTATE AMINOTRANSFERASE / BLOOD UREA NITROGEN / CARBON DIOXIDE / CHLORIDE / CHOLESTEROL / CREATINE PHOSPHOKINASE / CREATININE / GLUCOSE / LACTATE DEHYDROGENASE / LIPASE / PHOSPHORUS / POTASSIUM / SODIUM / TOTAL BILIRUBIN / TOTAL PROTEIN / URIC ACID: tissue Plasma

For `O=C(O)C(Cl)(Cl)Cl` [TRICHLOROACETIC ACID], the “ABSOLUTE BASOPHIL” value (72 h, time 3 day) was 0 CELLS/uL, the “ABSOLUTE EOSINOPHIL” value (72 h, time 3 day) was 47.33 CELLS/uL and the “ABSOLUTE LYMPHOCYTE” value (72 h, time 3 day) was 16441.33 CELLS/uL. For the same molecule, the “ABSOLUTE MONOCYTE” value (72 h, time 3 day) was 452 CELLS/uL, the “ABSOLUTE SEGMENTED NEUTROPHIL” value (72 h, time 3 day) was 2492.67 CELLS/uL and the BASOPHIL (72 h, time 3 day) was 0%. For the same molecule, the EOSINOPHIL (72 h, time 3 day) was 0.33%, the “ERYTHROCYTE COUNT” value (72 h, time 3 day) was 4.84 x10E6/uL and the HEMATOCRIT (72 h, time 3 day) was 30.03%. The HEMOGLOBIN (72 h, time 3 day) was 11.4 G/DL, the “LEUKOCYTE COUNT” value (72 h, time 3 day) was 19.43 x10E3/uL and the LYMPHOCYTE (72 h, time 3 day) was 85%. The “MEAN CORPUSCULAR HEMOGLOBIN” value (72 h, time 3 day) was 23.57 pg, the “MEAN CORPUSCULAR HEMOGLOBIN CONCENTRATION” value (72 h, time 3 day) was 38.03 G/DL and the “MEAN CORPUSCULAR VOLUME” value (72 h, time 3 day) was 62.03 fL. The MONOCYTE (72 h, time 3 day) was 2.33%, the NEUTROPHIL (72 h, time 3 day) was 12.33% and the “NUCLEATED RED BLOOD CELLS” value (72 h, time 3 day) was 0.33 /100WBC. For the same molecule, the “PLATELET COUNT” value (72 h, time 3 day) was 1335.33 x10E3/uL, the “ALANINE AMINOTRANSFERASE” value (72 h, time 3 day) was 56.33 u/L and the ALBUMIN (72 h, time 3 day) was 3.77 G/DL. The “ALKALINE PHOSPHATASE” value (72 h, time 3 day) was 300.33 u/L, the “ASPARTATE AMINOTRANSFERASE” value (72 h, time 3 day) was 95 u/L and the “BLOOD UREA NITROGEN” value (72 h, time 3 day) was 18.33 mg/dL. For the same molecule, the “CARBON DIOXIDE” value (72 h, time 3 day) was 24.33 mmol/L, the CHLORIDE (72 h, time 3 day) was 105 MEQ/L and the CHOLESTEROL (72 h, time 3 day) was 68.67 mg/dL. The “CREATINE PHOSPHOKINASE” value (72 h, time 3 day) was 418.33 u/L, the CREATININE (72 h, time 3 day) was 0.19 mg/dL and the GLUCOSE (72 h, time 3 day) was 142.67 mg/dL. For the same molecule, the “LACTATE DEHYDROGENASE” value (72 h, time 3 day) was 520.33 u/L, the LIPASE (72 h, time 3 day) was 7.67 u/L and the PHOSPHORUS (72 h, time 3 day) was 12.23 mg/dL. For the same molecule, the POTASSIUM (72 h, time 3 day) was 6.31 MEQ/L, the SODIUM (72 h, time 3 day) was 146.47 MEQ/L and the “TOTAL BILIRUBIN” value (72 h, time 3 day) was 0.2 mg/dL. For the same molecule, the “TOTAL PROTEIN” value (72 h, time 3 day) was 5.27 G/DL, the “URIC ACID” value (72 h, time 3 day) was 1.37 mg/dL and the “ABSOLUTE BASOPHIL” value (120 h, time 5 day) was 0 CELLS/uL. For the same molecule, the “ABSOLUTE EOSINOPHIL” value (120 h, time 5 day) was 102 CELLS/uL, the “ABSOLUTE LYMPHOCYTE” value (120 h, time 5 day) was 13327 CELLS/uL and the “ABSOLUTE MONOCYTE” value (120 h, time 5 day) was 456.67 CELLS/uL. The “ABSOLUTE SEGMENTED NEUTROPHIL” value (120 h, time 5 day) was 2747.67 CELLS/uL, the BASOPHIL (120 h, time 5 day) was 0% and the EOSINOPHIL (120 h, time 5 day) was 0.67%. For the same molecule, the “ERYTHROCYTE COUNT” value (120 h, time 5 day) was 5.19 x10E6/uL, the HEMATOCRIT (120 h, time 5 day) was 33.1% and the HEMOGLOBIN (120 h, time 5 day) was 12.5 G/DL. The “LEUKOCYTE COUNT” value (120 h, time 5 day) was 16.63 x10E3/uL, the LYMPHOCYTE (120 h, time 5 day) was 80% and the “MEAN CORPUSCULAR HEMOGLOBIN” value (120 h, time 5 day) was 24.07 pg. For the same molecule, the “MEAN CORPUSCULAR HEMOGLOBIN CONCENTRATION” value (120 h, time 5 day) was 37.77 G/DL, the “MEAN CORPUSCULAR VOLUME” value (120 h, time 5 day) was 63.73 fL and the MONOCYTE (120 h, time 5 day) was 2.67%. For the same molecule, the NEUTROPHIL (120 h, time 5 day) was 16.67%, the “NUCLEATED RED BLOOD CELLS” value (120 h, time 5 day) was 0 /100WBC and the “PLATELET COUNT” value (120 h, time 5 day) was 1546 x10E3/uL. The “ALANINE AMINOTRANSFERASE” value (120 h, time 5 day) was 55 u/L, the ALBUMIN (120 h, time 5 day) was 3.33 G/DL and the “ALKALINE PHOSPHATASE” value (120 h, time 5 day) was 217 u/L. The “ASPARTATE AMINOTRANSFERASE” value (120 h, time 5 day) was 111.33 u/L, the “BLOOD UREA NITROGEN” value (120 h, time 5 day) was 13.67 mg/dL and the “CARBON DIOXIDE” value (120 h, time 5 day) was 23 mmol/L. The CHLORIDE (120 h, time 5 day) was 109.33 MEQ/L, the CHOLESTEROL (120 h, time 5 day) was 66 mg/dL and the “CREATINE PHOSPHOKINASE” value (120 h, time 5 day) was 1000 u/L. For the same molecule, the CREATININE (120 h, time 5 day) was 0.19 mg/dL, the GLUCOSE (120 h, time 5 day) was 170 mg/dL and the “LACTATE DEHYDROGENASE” value (120 h, time 5 day) was 160 u/L. It also gave an LIPASE (120 h, time 5 day) of 8 u/L, a PHOSPHORUS (120 h, time 5 day) of 12.67 mg/dL and a POTASSIUM (120 h, time 5 day) of 6.26 MEQ/L. For the same molecule, the SODIUM (120 h, time 5 day) was 147.7 MEQ/L, the “TOTAL BILIRUBIN” value (120 h, time 5 day) was 0.17 mg/dL and the “TOTAL PROTEIN” value (120 h, time 5 day) was 5.03 G/DL. For the same molecule, the “URIC ACID” value (120 h, time 5 day) was 2.6 mg/dL.
